Source: PubChem BioAssay AID1963972 (Molecular Pharmacology Branch, DTP, NCI, 2024)
Several values for one entry are separate records, joined by “and”; a condition that tells them apart may be missing. Equal entries are not always repeated.

Tested on: 945468-187-T-J2-PDC spheroids viability
Assay: Anticancer human tumor 945468-187-T-J2-PDC patient-derived rectal carcinoma cell line growth inhibition [PI3K]
Conditions: spheroids with HUVEC and MSC; for viability, T/C: stronger effect = lower value
Outline: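 Combination activity was assessed by viability in multicellular tumor spheroids carrying HUVEC and MSC components. Agents were tested with PI3K inhibitors from a Cmax-based top dose (or 10 microM) downward in half-log increments.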

[1] = curve of first compound, second compound 0.0316 µM
[2] = curve of first compound, second compound 0.1 µM
[3] = curve of first compound, second compound 0.316 µM
[4] = curve of first compound, second compound 1 µM
[5] = second compound 0.0316 µM, first compound 0.0316 µM
[6] = second compound 0.0316 µM, first compound 0.1 µM
[7] = second compound 0.1 µM, first compound 0.0316 µM
[8] = second compound 0.1 µM, first compound 0.1 µM
[9] = second compound 0.316 µM, first compound 0.0316 µM
[10] = second compound 0.316 µM, first compound 0.1 µM
[11] = second compound 1 µM, first compound 0.0316 µM
[12] = second compound 1 µM, first compound 0.1 µM
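Further: spheroids exposed to compounds for seven days before reading.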

## CC(=O)c1c(C)c2cnc(Nc3ccc(N4CCNCC4)cn3)nc2n(C2CCCC2)c1=O + Cc1nc(NC(=O)N2CCCC2C(N)=O)sc1-c1ccnc(C(C)(C)C(F)(F)F)c1
[1]
  IC50: > 0.1 µM
[2]
  IC50: > 0.1 µM
[3]
  IC50: > 0.1 µM
[4]
  IC50: > 0.1 µM
Curve of first compound, second compound 3.16 µM
  IC50: > 0.1 µM
Curve of first compound, second compound 10 µM
  IC50: > 0.1 µM
Second compound 0.0316 µM, first compound 0.000316 µM
  viability, T/C: 79.2%
Second compound 0.0316 µM, first compound 0.001 µM
  viability, T/C: 88.4%
Second compound 0.0316 µM, first compound 0.00316 µM
  viability, T/C: 89.4%
Second compound 0.0316 µM, first compound 0.01 µM
  viability, T/C: 121%
[5]
  viability, T/C: 79.5%
[6]
  viability, T/C: 98.2%
Second compound 0.1 µM, first compound 0.000316 µM
  viability, T/C: 86.1%
Second compound 0.1 µM, first compound 0.001 µM
  viability, T/C: 84.2%
Second compound 0.1 µM, first compound 0.00316 µM
  viability, T/C: 89.6%
Second compound 0.1 µM, first compound 0.01 µM
  viability, T/C: 84.1%
[7]
  viability, T/C: 110%
[8]
  viability, T/C: 103%
Second compound 0.316 µM, first compound 0.000316 µM
  viability, T/C: 93.7%
Second compound 0.316 µM, first compound 0.001 µM
  viability, T/C: 107%
Second compound 0.316 µM, first compound 0.00316 µM
  viability, T/C: 95.5%
Second compound 0.316 µM, first compound 0.01 µM
  viability, T/C: 88.6%
[9]
  viability, T/C: 118%
[10]
  viability, T/C: 136%
Second compound 1 µM, first compound 0.000316 µM
  viability, T/C: 118%
Second compound 1 µM, first compound 0.001 µM
  viability, T/C: 110%
Second compound 1 µM, first compound 0.00316 µM
  viability, T/C: 75.7%
Second compound 1 µM, first compound 0.01 µM
  viability, T/C: 78%
[11]
  viability, T/C: 94.9%
[12]
  viability, T/C: 90.3%
Second compound 3.16 µM, first compound 0.000316 µM
  viability, T/C: 79.2%
Second compound 3.16 µM, first compound 0.001 µM
  viability, T/C: 71.7%
Second compound 3.16 µM, first compound 0.00316 µM
  viability, T/C: 82.8%
Second compound 3.16 µM, first compound 0.01 µM
  viability, T/C: 75.3%
Second compound 3.16 µM, first compound 0.0316 µM
  viability, T/C: 83%
Second compound 3.16 µM, first compound 0.1 µM
  viability, T/C: 78.2%
Second compound 10 µM, first compound 0.000316 µM
  viability, T/C: 83%
Second compound 10 µM, first compound 0.001 µM
  viability, T/C: 66.7%
Second compound 10 µM, first compound 0.00316 µM
  viability, T/C: 78%
Second compound 10 µM, first compound 0.01 µM
  viability, T/C: 64.5%
Second compound 10 µM, first compound 0.0316 µM
  viability, T/C: 92.7%
Second compound 10 µM, first compound 0.1 µM
  viability, T/C: 76.3%

## CC(C)NCC(C(=O)N1CCN(c2ncnc3c2C(C)CC3O)CC1)c1ccc(Cl)cc1 (centres undefined) + COc1c(OCCCN2CCOCC2)ccc2c3n(c(=NC(=O)c4cnc(N)nc4)nc12)CCN3
Curve of first compound, second compound 0.00316 µM
  IC50: > 10 µM
Curve of first compound, second compound 0.01 µM
  IC50: > 10 µM
[1]
  IC50: > 10 µM
[2]
  IC50: > 10 µM
[3]
  IC50: < 0.0316 µM
[4]
  IC50: < 0.0316 µM
Second compound 0.00316 µM, first compound 0.0316 µM
  viability, T/C: 88.9%
Second compound 0.00316 µM, first compound 0.1 µM
  viability, T/C: 110%
Second compound 0.00316 µM, first compound 0.316 µM
  viability, T/C: 129%
Second compound 0.00316 µM, first compound 1 µM
  viability, T/C: 106%
Second compound 0.00316 µM, first compound 3.16 µM
  viability, T/C: 110%
Second compound 0.00316 µM, first compound 10 µM
  viability, T/C: 90.3%
Second compound 0.01 µM, first compound 0.0316 µM
  viability, T/C: 104%
Second compound 0.01 µM, first compound 0.1 µM
  viability, T/C: 109%
Second compound 0.01 µM, first compound 0.316 µM
  viability, T/C: 111%
Second compound 0.01 µM, first compound 1 µM
  viability, T/C: 87.7%
Second compound 0.01 µM, first compound 3.16 µM
  viability, T/C: 90.2%
Second compound 0.01 µM, first compound 10 µM
  viability, T/C: 86.6%
[5]
  viability, T/C: 83.6%
[6]
  viability, T/C: 125%
Second compound 0.0316 µM, first compound 0.316 µM
  viability, T/C: 112%
Second compound 0.0316 µM, first compound 1 µM
  viability, T/C: 103%
Second compound 0.0316 µM, first compound 3.16 µM
  viability, T/C: 84%
Second compound 0.0316 µM, first compound 10 µM
  viability, T/C: 101%
[7]
  viability, T/C: 87.2%
[8]
  viability, T/C: 106%
Second compound 0.1 µM, first compound 0.316 µM
  viability, T/C: 120%
Second compound 0.1 µM, first compound 1 µM
  viability, T/C: 80.5%
Second compound 0.1 µM, first compound 3.16 µM
  viability, T/C: 82.3%
Second compound 0.1 µM, first compound 10 µM
  viability, T/C: 86.1%
[9]
  viability, T/C: 47.1%
[10]
  viability, T/C: 51.6%
Second compound 0.316 µM, first compound 0.316 µM
  viability, T/C: 39.7%
Second compound 0.316 µM, first compound 1 µM
  viability, T/C: 44.6%
Second compound 0.316 µM, first compound 3.16 µM
  viability, T/C: 45.4%
Second compound 0.316 µM, first compound 10 µM
  viability, T/C: 36.8%
[11]
  viability, T/C: 21%
[12]
  viability, T/C: 21.3%
Second compound 1 µM, first compound 0.316 µM
  viability, T/C: 23.3%
Second compound 1 µM, first compound 1 µM
  viability, T/C: 20.9%
Second compound 1 µM, first compound 3.16 µM
  viability, T/C: 24.6%
Second compound 1 µM, first compound 10 µM
  viability, T/C: 21.6%

## C=CC(=O)N1CCN(c2nc(=O)n(-c3c(C)ccnc3C(C)C)c3nc(-c4c(O)cccc4F)c(F)cc23)C(C)C1 (centres undefined)
Compound 0.1 µM
  viability, T/C: 104% [middle of 4 runs]
Compound 0.316 µM
  viability, T/C: 95.7% [middle of 4 runs]
Compound 3.16 µM
  viability, T/C: 104% (2×) and 113% and 89.9%
Compound 10 µM
  viability, T/C: 107% [middle of 4 runs]
Curve of compound
  IC50: > 10 µM
